# Data from patent EP0007672A1, “Isocyanoalkenes, process and useful intermediates for their preparation, pharmaceutical and fungicidal preparations containing those isocyanoalkenes and the use of the fungicidal preparations in agriculture” (GIST-BROCADES N.V., priority 1978, dated 1980).
# Read-outs that look alike come from different tables or passages of the source.
# What was measured:
# Experiment in all cases: MIC (Minimum Inhibitory Concentration)
# Format in all cases: cell-based
# Candida albicans = test system: Candida albicans
# Pasteurella multocida = Pasteurella multocida A 723; read-out: MIC values
# [1] = test system: Streptococcus haemolyticus; conditions: Streptococcus haemolyticus A 1088; read-out: MIC values
# Trichophyton equinum = test system: Trichophyton equinum
# [2] = test system: Trichophyton mentagrophytus
# Trichophyton quickeaneum = Trichophyton quickeaneum A 2040; read-out: MIC values
# Trichophyton rubrum = test system: Trichophyton rubrum
# [3] = test system: Trichophyton schoenleinii; conditions: Trichophyton schoenleinii 435-63; read-out: MIC values
# [4] = test system: Trichophyton soudanese joyeux; conditions: Trichophyton soudanese joyeux 440-63; read-out: MIC values
# Trichophyton tonsurans = Trichophyton tonsurans 561-50; read-out: MIC values
# Trichophyton verrucosum = test system: Trichophyton verrucosum
# Trichophyton violoceum = Trichophyton violoceum 442-62; read-out: MIC values
# [5] = Candida albicans A 7, read-out: MIC values
# [6] = Candida albicans A 3140, read-out: MIC values
# [7] = Candida albicans A 3141, read-out: MIC values
# [8] = Candida albicans A 3142, read-out: MIC values
# [9] = Candida albicans A 3143, read-out: MIC values
# [10] = Candida albicans A 3144, read-out: MIC values
# [11] = Candida albicans A 3145, read-out: MIC values
# [12] = Candida albicans A 3165, read-out: MIC values
# [13] = Candida albicans A 3166, read-out: MIC values
# [14] = Candida albicans A 3167, read-out: MIC values
# [15] = Candida albicans A 3168, read-out: MIC values
# [16] = Candida albicans A 3169, read-out: MIC values
# [17] = Candida albicans A 3171, read-out: MIC values
# [18] = Candida albicans A 3184, read-out: MIC values
# [19] = Candida albicans A 3190, read-out: MIC values
# [20] = Candida albicans A 3191, read-out: MIC values
# [21] = Candida albicans A 3192, read-out: MIC values
# [22] = Candida albicans A 3194, read-out: MIC values
# [23] = Candida albicans A 3196, read-out: MIC values
# [24] = Trichophyton equinum 441-51, read-out: MIC values
# [25] = Trichophyton equinum 856-71, read-out: MIC values
# [26] = Trichophyton mentagrophytus 367-68, read-out: MIC values
# [27] = Trichophyton mentagrophytus 421-67, read-out: MIC values
# [28] = Trichophyton mentagrophytus A 3252, read-out: MIC values
# [29] = Trichophyton mentagrophytus R 177, read-out: MIC values
# [30] = Trichophyton mentagrophytus R 178, read-out: MIC values
# [31] = Trichophyton mentagrophytus RRL 305, read-out: MIC values
# [32] = Trichophyton rubrum 218-65, read-out: MIC values
# [33] = Trichophyton rubrum 494-62, read-out: MIC values
# [34] = Trichophyton rubrum A 810, read-out: MIC values
# [35] = Trichophyton verrucosum 134-66, read-out: MIC values
SMILES,MIC (Candida albicans; [5]) [µg/mL],MIC (Candida albicans; [6]) [µg/mL],MIC (Candida albicans; [7]) [µg/mL],MIC (Candida albicans; [8]) [µg/mL],MIC (Candida albicans; [9]) [µg/mL],MIC (Candida albicans; [10]) [µg/mL],MIC (Candida albicans; [11]) [µg/mL],MIC (Candida albicans; [12]) [µg/mL],MIC (Candida albicans; [13]) [µg/mL],MIC (Candida albicans; [14]) [µg/mL],MIC (Candida albicans; [15]) [µg/mL],MIC (Candida albicans; [16]) [µg/mL],MIC (Candida albicans; [17]) [µg/mL],MIC (Candida albicans; [18]) [µg/mL],MIC (Candida albicans; [19]) [µg/mL],MIC (Candida albicans; [20]) [µg/mL],MIC (Candida albicans; [21]) [µg/mL],MIC (Candida albicans; [22]) [µg/mL],MIC (Candida albicans; [23]) [µg/mL],MIC (Pasteurella multocida) [µg/mL],also measured
"[C-]#[N+]C(=Cc1ccc(Cl)cc1)S(=O)(=O)c1ccc(C)cc1 [Example 11, 1-isocyanv-2-(4-chlorophenyl)-1-(4-toluenesulphonyl)-ethene]",0.8,0.4,0.8,1.5,1.5,1.5,1.5,1.5,1.5,1.5,0.8,1.5,1.5,1.5,1.5,1.5,1.5,1.5,3,6,"MIC [1]: 3 µg/mL; MIC (Trichophyton equinum; Trichophyton equinum 182-76, read-out: MIC values): 3 µg/mL; MIC (Trichophyton equinum; [24]): 0.4 µg/mL; MIC (Trichophyton equinum; [25]): < 0.05 µg/mL; MIC [2, 26]: 1.5 µg/mL; MIC [2, 27]: 6 µg/mL; MIC [2, 28]: 1.5 µg/mL; MIC [2, 29]: 3 µg/mL; MIC [2, 30]: > 100 µg/mL; MIC [2, 31]: 1.5 µg/mL; MIC (Trichophyton quickeaneum): 1.5 µg/mL; MIC (Trichophyton rubrum; [32]): 1.5 µg/mL; MIC (Trichophyton rubrum; [33]): 1.5 µg/mL; MIC (Trichophyton rubrum; [34]): 0.8 µg/mL; MIC [3]: 0.4 µg/mL; MIC [4]: 6 µg/mL; MIC (Trichophyton tonsurans): 6 µg/mL; MIC (Trichophyton verrucosum; [35]): < 0.05 µg/mL; MIC (Trichophyton verrucosum; Trichophyton verrucosum A 2922, read-out: MIC values): 0.4 µg/mL; MIC (Trichophyton violoceum): 0.1 µg/mL"
"[C-]#[N+]C(=C(C)c1ccc([N+](=O)[O-])cc1)S(=O)(=O)c1ccc(C)cc1 [Example 22, 1-isocyano-2-(4-nitrophenyl)-1-(4-toluenesulphonyl)-1-propene]",1.5,3,3,3,1.5,3,3,3,1.5,1.5,3,3,3,1.5,3,3,3,1.5,3,6,"MIC [1]: 0.8 µg/mL; MIC (Trichophyton equinum; [24]): 1.5 µg/mL; MIC (Trichophyton equinum; [25]): 25 µg/mL; MIC [2, 26]: 3 µg/mL; MIC [2, 27]: 12.5 µg/mL; MIC [2, 28]: 12.5 µg/mL; MIC [2, 29]: 6 µg/mL; MIC [2, 30]: 6 µg/mL; MIC [2, 31]: 6 µg/mL; MIC (Trichophyton rubrum; [32]): 3 µg/mL; MIC (Trichophyton rubrum; [33]): 6 µg/mL; MIC (Trichophyton rubrum; [34]): 3 µg/mL; MIC [3]: 3 µg/mL; MIC [4]: 3 µg/mL; MIC (Trichophyton tonsurans): 1.5 µg/mL; MIC (Trichophyton verrucosum; [35]): 1.5 µg/mL; MIC (Trichophyton violoceum): 3 µg/mL"
"[C-]#[N+]C(=Cc1cccn1C)S(=O)(=O)c1ccc(C)cc1 [Example 30, 2-[1-isocyano-1-(4-toluenesulphonyl)-ethen-2-yl]-1-methylpyrrole]",6,12.5,12.5,12.5,6,6,12.5,6,6,3,12.5,6,12.5,6,12.5,> 100,6,12.5,12.5,25,"MIC [1]: 25 µg/mL; MIC (Trichophyton equinum; [24]): 0.4 µg/mL; MIC (Trichophyton equinum; [25]): > 100 µg/mL; MIC [2, 26]: 50 µg/mL; MIC [2, 27]: > 100 µg/mL; MIC [2, 28]: > 100 µg/mL; MIC [2, 29]: 100 µg/mL; MIC [2, 30]: > 100 µg/mL; MIC [2, 31]: > 100 µg/mL; MIC (Trichophyton rubrum; [32]): 50 µg/mL; MIC (Trichophyton rubrum; [33]): > 100 µg/mL; MIC (Trichophyton rubrum; [34]): 50 µg/mL; MIC [3]: 25 µg/mL; MIC [4]: 6 µg/mL; MIC (Trichophyton tonsurans): 0.4 µg/mL; MIC (Trichophyton verrucosum; [35]): 6 µg/mL; MIC (Trichophyton violoceum): 6 µg/mL"
